Experimental data as given in patent publication EP0579833B1, “ETHANOLAMINE DERIVATIVES WITH ANTI-POLLAKIURIA ACTIVITY” (FUJISAWA PHARMACEUTICAL CO., LTD., priority 1991, dated 1992).

What was measured:
[1] = tested on: isolated non-pregnant rat uterus; test: Effect on isolated non-pregnant rat uterus (spontaneous contractions, organ bath); design: species or system tissue; conditions: spontaneous contractions of uterine horn strip from estradiol-treated female SD rats, Locke solution, 37°C, 1 g tension, observed over 20 minutes
Protocol: Female SD rats (l50∼l80 g) were used. 48 and 24 hours prior to use, rats were given estradiol (ovahormon benzoat : Trademark, Teikoku Hormone Mfg. Co., Ltd.) subcutaneously at a dose of 40 µg/rat to induce oestrus. The animals were killed and uterine horns were removed. Each strip was placed in an organ bath containing 25 ml Locke solution aerating with 95% O2, 5% CO2 at 37°C under l g tension. Contractions were recorded isometrically. After the spontaneous contractions were of a uniform size, test compound was added to organ bath. The motility was observed over a 20 minutes period. Effect of test compound was calculated by comparing contractions before and after test compound.

[2] = tested on: isolated rat distal colon; test: Effect on isolated rat distal colon (spontaneous contractions, organ bath); type: tissue-based; conditions: spontaneous contractions of distal colon strip from male SD rats, Tyrode solution, 37°C, 0.5 g tension, observed over 30 minutes
Protocol: Male SD rats (l80∼230 g) were used. Animals were fasted for 24 hours prior to experiment. Distal colon was removed immediately after sacrifice and placed in an organ bath containing 25 ml Tyrode solution aerating with 95% O2, 5% CO2 at 37°C. The strip was mounted under 0.5 g tension and spontaneous contractions were recorded isometrically. After the motility was of a uniform size, test compound was added to an organ bath and the contractions were observed over a 30 minutes period. Effect of test compound was calculated by comparing contractions before and after test compound.

- IC50 [1]: 510 nM
- IC50 [2]: 1.9 nM
Substance: (1R,1'R,2'R)- and (1R,1'S,2'S)-1-(3-chlorophenyl)-2-[(7-ethoxycarbonylmethoxy-l-hydroxy-l,2,3,4-tetrahydro-2- naphthyl)amino]ethanol hydrochloride [Example 2]
